US11319303B2 (WIGEN BIOMEDICINE TECHNOLOGY (SHANGHAI) CO., LTD., priority 2017, dated 2022)
Where a name gives a salt, the structure may show the parent alone.

The compounds below were run against LC3B (Homo sapiens, UniProt Q9GZQ8) (assay: Fluorescence Polarization (FP) Assay: displacement of FITC-labeled peptide from GST-LC3B). Details: not given.
Type: binding
Method: The compounds of the present invention for regulating the autophagy-related protein LC3B were tested by Fluorescence Polarization (FP) Assay.
Fluorescence Polarization (FP) Assay Test

| Structure (SMILES) | IC50 [µM] |
| --- | --- |
| O=C1CC(c2ccccc2)CC(=O)C1=CNC1CCSC1=O (stereo not drawn) [Compound 137, 2-(((2-oxotetrahydro-thiophen-3-yl)amino)methylene)-5-phenylcyclohexane-1,3-dione] | 3 to 15 |

Same assay, conditions: Fluorescence Polarization assay; GST-LC3B 180 nM, FITC-labeled peptide 18 nM, 25° C.; read-out: IC50

| IC50 [µM] | Structure (SMILES) |
| --- | --- |
| 100 to 1000 | O=C1CCN(c2ccccc2)C(=O)/C1=C\NCCN1CCN(CCO)CC1 [Compound 99, 3-(((2-(4-(2-hydroxyethyl)piperazin-1-yl)ethyl)amino)methylene)-1-phenylpiperidine-2,4-dione] |
| 15 to 100 | O=C1C(=CNCCN2CCN(CCO)CC2)C(=O)C(c2ccccc2)CC1Cc1ccccc1 (stereo not drawn) [Compound 101, 4-benzyl-2-(((2-(4-(2-hydroxyethyl)piperazin-1-yl)ethyl)amino)methylene)-6-phenylcyclohexane-1,3-dione] |
| 15 to 100 | O=C1CN(Cc2ccccc2)CC(=O)C1=CNCCN1CCN(CCO)CC1 [Compound 103, 1-benzyl-4-(((2-(4-(2-hydroxyethyl)piperazin-1-yl)ethyl)amino)methylene)-piperidine-3,5-dione] |
| 15 to 100 | O=C1CN(C(=O)c2ccccc2)CC(=O)C1=CNCCN1CCN(CCO)CC1 [Compound 104, 1-benzoyl-4-(((2-(4-(2-hydroxyethyl)piperazin-1-yl)ethyl)amino)methylene)-piperidine-3,5-dione] |
| 15 to 100 | O=C1Nc2ccccc2C(=O)/C1=C/NCCN1CCN(CCO)CC1 [Compound 107, 3-(((2-(4-(2-hydroxyethyl)piperazin-1-yl)ethyl)amino)methylene)quinoline-2,4(1H,3H)-dione] |
| 100 to 1000 | CC(NCCN1CCN(CCO)CC1)=C1C(=O)CC(c2ccccc2)CC1=O (stereo not drawn) [Compound 108, 2-(1-((2-(4-(2-hydroxyethyl)piperazin-1-yl)ethyl)amino)ethylidene)-5-phenylcyclohexane-1,3-dione] |
| 100 to 1000 | O=C1CC(c2ccccc2)CC(=O)C1=C(NCCN1CCN(CCO)CC1)c1ccccc1 (stereo not drawn) [Compound 110, 2-(((2-(4-(2-hydroxyethyl)piperazin-1-yl)ethyl)amino)(phenyl)methylene)-5-phenylcyclohexane-1,3-dione] |
| 100 to 1000 | CC(=O)OCC(=O)C1=C(O)CC(c2ccccc2)CC1=O (stereo not drawn) [Compound 111, 2-(5-hydroxy-3-oxo-1,2,3,6-tetrahydro-[1,1′ -biphenyl]-4-yl)-2-oxoethyl acetate] |
| 100 to 1000 | O=C1CC2c3ccccc3CCC2C(=O)/C1=C\NCCN1CCN(CCO)CC1 (stereo not drawn) [Compound 113, 2-(((2-(4-(2-hydroxyethyl)piperazin-1-yl)ethyl)amino)methylene)-4a,9,10,10a-tetrahydrophenanthrene-1,3(2H,4H)-dione] |
| < 3 | CC1C(=O)C(=CNCCN2CCN(CCO)CC2)C(=O)CC1c1ccccc1 (stereo not drawn) [Compound 116, 2-(((2-(4-(2-hydroxyethyl)piperazin-1-yl)ethyl)amino)methylene)-4-methyl-5-phenylcyclohexane-1,3-dione] |
| < 3 | CN(C)CCNC=C1C(=O)CC(c2ccccc2)CC1=O (stereo not drawn) [Compound 119, 2-(((2-(dimethylamino)ethyl)amino)methylene)-5-phenylcyclo-hexane-1,3-dione] |
| < 3 | CCN(CC)CCNC=C1C(=O)CC(c2ccccc2)CC1=O (stereo not drawn) [Compound 120, 2-(((2-(diethylamino)ethyl)amino)methylene)-5-phenylcyclo-hexane-1,3-dione] |
| 100 to 1000 | C[C@H](NC=C1C(=O)CC(c2ccccc2)CC1=O)C(=O)OCc1ccccc1 (stereo partly drawn) [Compound 122, benzyl ((2,6-dioxo-4-phenylcyclo-hexylidene)methyl)-L-alaninate] |
| 100 to 1000 | O=C1CC(c2ccccc2)CC(=O)C1=CN[C@@H](Cc1ccccc1)C(=O)O (stereo partly drawn) [Compound 123, ((2,6-dioxo-4-phenylcyclo-hexylidene)methyl) phenylalanine] |
| 15 to 100 | COC(=O)C(CCSC)NC=C1C(=O)CC(c2ccccc2)CC1=O (stereo not drawn) [Compound 127, methyl ((2,6-dioxo-4-phenylcyclo-hexylidene)methyl) methioninate] |
| 15 to 100 | O=C(O)CCCNC=C1C(=O)CC(c2ccccc2)CC1=O (stereo not drawn) [Compound 131, 4-(((2,6-dioxo-4-phenylcyclo-hexylidene)methyl)amino) butanoic acid] |
| 100 to 1000 | O=C1CC(c2ccccc2)CC(=O)C1=CNCCCCO (stereo not drawn) [Compound 132, 2-(((4-hydroxybutyl)amino)methylene)-5-phenylcyclohexane-1,3-dione] |
| 100 to 1000 | O=C1CC(c2ccccc2)CC(=O)C1=CNCCc1c[nH]c2ccccc12 (stereo not drawn) [Compound 135, 2-(((2-(1H-indol-3-yl)ethyl)amino)methylene)-5-phenylcyclo-hexane-1,3-dione] |
| 15 to 100 | C=CCNC=C1C(=O)CC(c2ccccc2)CC1=O (stereo not drawn) [Compound 143, 2-((allylamino)methylene)-5-phenylcyclo-hexane-1,3-dione] |
| 100 to 1000 | COc1ccc(CNC=C2C(=O)CC(c3ccccc3)CC2=O)cc1 (stereo not drawn) [Compound 145, 2-(((4-methoxybenzyl)amino)methylene)-5-phenylcyclo-hexane-1,3-dione] |

The remaining lines, values behind:

| Structure (SMILES) | IC50 [µM] |
| --- | --- |
| O=C1CC(c2ccccc2)NC(=O)C1=CNCCN1CCN(CCO)CC1 (stereo not drawn) [Compound 96, 3-(((2-(4-(2-hydroxyethyl)piperazin-1-yl)ethyl)amino)methylene)-6-phenylpiperidine-2,4-dione] | 100 to 1000 |
| O=C1CN(c2ccccc2)CC(=O)C1=CNCCN1CCN(CCO)CC1 [Compound 97, 4-(((2-(4-(2-hydroxyethyl)piperazin-1-yl)ethyl)amino)methylene)-1-phenylpiperidine-3,5-dione] | 15 to 100 |
| O=C1CCC(c2ccc(F)cc2)C(=O)C1=CNCCN1CCN(CCO)CC1 (stereo not drawn) [Compound 100, 4-(4-fluorophenyl)-2-(((2-(4-(2-hydroxyethyl)piperazin-1-yl)ethyl)amino)methylene)cyclohexane-1,3-dione] | 15 to 100 |
| COc1ccc(CN2CC(=O)C(=CNCCN3CCN(CCO)CC3)C(=O)C2)cc1 [Compound 102, 4-(((2-(4-(2-hydroxyethyl)piperazin-1-yl)ethyl)amino)methylene)-1-(4-methoxybenzyl)piperidine-3,5-dione] | 15 to 100 |
| O=C1CC(C(=O)N2CCOCC2)CC(=O)C1=CNCCN1CCN(CCO)CC1 (stereo not drawn) [Compound 106, 2-(((2-(4-(2-hydroxyethyl)piperazin-1-yl)ethyl)amino)methylene)-5-(morpholine-4-carbonyl)cyclohexane-1,3-dione] | 100 to 1000 |
| O=C(CO)C1C(=O)CC(c2ccccc2)CC1=O (stereo not drawn) [Compound 112, 2-(hydroacetyl)-5-pheyl-cyclohexane-1,3-dione] | 15 to 100 |
| O=C1CC([C@H]2O[C@@H](n3cnc4c(N5CCOCC5)ncnc43)[C@H](O)[C@@H]2O)CC(=O)C1=CNCCN1CCN(CCO)CC1 (stereo partly drawn) [Compound 114, 5-((2R, 3S, 4R, 5R)-3,4-dihydroxy-5-(6-morpholino-9H-purin-9-yl)tetrahydrofuran-2-yl)-2-(((2-(4-(2-hydroxyethyl)piperazin-1-yl)ethyl)amino)methylene)cyclohexane-1,3-dione] | 100 to 1000 |
| O=C1CC(Cc2ccccc2)C(=O)/C1=C/NCCN1CCN(CCO)CC1 (stereo not drawn) [Compound 115, 4-benzyl-2-(((2-(4-(2-hydroxyethyl)piperazin-1-yl)ethyl)amino)-methylene)cyclopentane-1,3-dione] | 3 to 15 |
| C[C@H](NC=C1C(=O)CC(c2ccccc2)CC1=O)C(=O)O (stereo partly drawn) [Compound 121, ((2,6-dioxo-4-phenylcyclo-hexylidene)methyl)-L-alanine] | 15 to 100 |
| CCOC(=O)[C@H](Cc1ccccc1)NC=C1C(=O)CC(c2ccccc2)CC1=O (stereo partly drawn) [Compound 124, (l)-ethyl ((2,6-dioxo-4-phenylcyclo-hexylidene)methyl) phenylalaninate] | 100 to 1000 |
| O=C1CC(c2ccccc2)CC(=O)C1=CN[C@@H](Cc1ccccc1)C(=O)OCc1ccccc1 (stereo partly drawn) [Compound 125, benzyl ((2,6-dioxo-4-phenylcyclo-hexylidene)methyl)-L-phenylalaninate] | 100 to 1000 |
| O=C1CC(c2ccccc2)CC(=O)C1=CN[C@@H](Cc1c[nH]cn1)C(=O)O (stereo partly drawn) [Compound 126, ((2,6-dioxo-4-phenylcyclo-hexylidene)methyl)-L-histidine] | 15 to 100 |
| COCCNC=C1C(=O)CC(c2ccccc2)CC1=O (stereo not drawn) [Compound 128, 2-(((2-methoxyethyl)amino)methylene)-5-phenylcyclohexane-1,3-dione] | 100 to 1000 |
| COC(=O)CNC=C1C(=O)CC(c2ccccc2)CC1=O (stereo not drawn) [Compound 129, methyl ((2,6-dioxo-4-phenylcyclo-hexylidene)methyl)glycinate] | 15 to 100 |
| O=C1CC(c2ccccc2)CC(=O)C1=CNCCCCl (stereo not drawn) [Compound 133, 2-(((3-chloropropyl)amino)methylene)-5-phenylcyclohexane-1,3-dione] | 100 to 1000 |
| O=C1CC(c2ccccc2)CC(=O)C1=CNCCOCCO (stereo not drawn) [Compound 134, 2-(((2-(2-hydroxyethoxy)ethyl)amino)methylene)-5-phenylcyclohexane-1,3-dione] | 100 to 1000 |
| O=C1CC(c2ccccc2)CC(=O)C1=CNC1CCC(O)CC1 (stereo not drawn) [Compound 136, 2-(((4-hydroxycyclohexyl)amino)methylene)-5-phenylcyclohexane-1,3-dione] | 100 to 1000 |
| O=C1CC(c2ccccc2)CC(=O)C1=CNC1CCNCC1 (stereo not drawn) [Compound 140, 5-phenyl-2-((piperidin-4-ylamino)methylene) cyclohexane-1,3-dione hydrochloride] | 15 to 100 |
| O=C1CC(c2ccccc2)CC(=O)C1=CNC1CCCNC1 (stereo not drawn) [Compound 141, 5-phenyl-2-((piperidin-3-ylamino)methylene) cyclohexane-1,3-dione hydrochloride] | 3 to 15 |
| CN1CCC(NC=C2C(=O)CC(c3ccccc3)CC2=O)CC1 (stereo not drawn) [Compound 142, 2-(((1-methylpiperidin-4-yl)amino)methylene)-5-phenylcyclohexane-1,3-dione] | 15 to 100 |
| COc1ccc(NC=C2C(=O)CC(c3ccccc3)CC2=O)cn1 (stereo not drawn) [Compound 147, 2-(((6-methoxypyridin-3-yl)amino)methylene)-5-phenylcyclo-hexane-1,3-dione] | 15 to 100 |
